Experimental data taken from ChEMBL document CHEMBL1201862, “PubChem BioAssay data set” (2004).
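Following 48 hours of exposure in 96-well plates, responses at five concentrations were used to interpolate endpoints linearly. GI50 = concentration required for 50% inhibition of growth.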 Calls of active or inactive are those of the source. Cut-off read from the data, not from the text of the source: active = GI50 up to about 1.1 µM and inactive = higher.

Columns and labels:
Assay in all cases: NCI anticancer screen, dose series, 48 h
NCI-H23 = tested on: NCI-H23
MCF7 = tested on: MCF7
OVCAR-5 = tested on: OVCAR-5
HOP-92 = tested on: HOP-92
T47D = tested on: T47D
UACC-62 = tested on: UACC-62
HCT-116 = tested on: HCT-116
M14 = tested on: M14
NCI-H226 = tested on: NCI-H226
MDA-MB-435 = tested on: MDA-MB-435
A498 = tested on: A498
NCI-H460 = tested on: NCI-H460
Malme-3M = tested on: Malme-3M
SNB-19 = tested on: SNB-19
UO-31 = tested on: UO-31
786-0 = tested on: 786-0
RXF 393 = tested on: RXF 393
OVCAR-8 = tested on: OVCAR-8
LOX IMVI = tested on: LOX IMVI
SK-MEL-2 = tested on: SK-MEL-2

Compound | GI50 (NCI-H23) | GI50 (MCF7) | GI50 (OVCAR-5) | GI50 (HOP-92) | GI50 (T47D) | GI50 (UACC-62) | GI50 (HCT-116) | GI50 (M14) | GI50 (NCI-H226) | GI50 (MDA-MB-435) | GI50 (A498) | GI50 (NCI-H460) | GI50 (Malme-3M) | GI50 (SNB-19) | GI50 (UO-31) | GI50 (786-0) | GI50 (RXF 393) | GI50 (OVCAR-8) | GI50 (LOX IMVI) | GI50 (SK-MEL-2)
CC1(C)OC[C@H](COCOP2(=O)Oc3ccc4ccccc4c3-c3c(ccc4ccccc34)O2)O1 | 15.6 µM (inactive) | 3.48 µM (inactive) | 17.8 µM (inactive) | 14.6 µM (inactive) | 18.3 µM (inactive) | 17.2 µM (inactive) | 15 µM (inactive) | 16.3 µM (inactive) | 18.7 µM (inactive) | 13.7 µM (inactive) | 16.9 µM (inactive) | 16.7 µM (inactive) | 21.3 µM (inactive) | 19.1 µM (inactive) | 18.3 µM (inactive) | 35.5 µM (inactive) | > 10 µM (inactive) | 25.2 µM (inactive) | – | –
CC1CSc2nc3nc(S)nc-3c(O)n2C1 (centres undefined) | > 100 µM (inactive) | > 100 µM (inactive) | > 100 µM (inactive) | – | > 100 µM (inactive) | > 100 µM (inactive) | > 100 µM (inactive) | – | > 100 µM (inactive) | > 100 µM (inactive) | > 100 µM (inactive) | > 100 µM (inactive) | > 100 µM (inactive) | > 100 µM (inactive) | > 100 µM (inactive) | > 100 µM (inactive) | > 100 µM (inactive) | > 100 µM (inactive) | > 100 µM (inactive) | –
COc1cccc(N(CN2C(=O)CCC2OC)C(C)=O)c1 (centres undefined) | > 100 µM (inactive) | > 100 µM (inactive) | > 100 µM (inactive) | > 100 µM (inactive) | > 100 µM (inactive) | > 100 µM (inactive) | > 100 µM (inactive) | > 100 µM (inactive) | > 100 µM (inactive) | > 100 µM (inactive) | > 100 µM (inactive) | > 100 µM (inactive) | – | > 100 µM (inactive) | > 100 µM (inactive) | > 100 µM (inactive) | > 100 µM (inactive) | > 100 µM (inactive) | > 100 µM (inactive) | > 100 µM (inactive)
Cc1cc(C)nc(NS(=O)(=O)c2ccc(NNC(=O)c3cccc4c(NNc5ccc(S(=O)(=O)Nc6nc(C)cc(C)n6)cc5)c5ccccc5nc34)cc2)n1 | 22.8 µM (inactive) | 31.5 µM (inactive) | 20.1 µM (inactive) | 17.8 µM (inactive) | 19.5 µM (inactive) | 18.5 µM (inactive) | 22.9 µM (inactive) | 17.5 µM (inactive) | 25.2 µM (inactive) | 20.9 µM (inactive) | – | 20.6 µM (inactive) | 20.7 µM (inactive) | 24.5 µM (inactive) | 18.9 µM (inactive) | 21.8 µM (inactive) | 20.8 µM (inactive) | 20.6 µM (inactive) | 17.2 µM (inactive) | 23.6 µM (inactive)
Cc1cn(CC2=NCC(C)(C)CN2)c(=O)[nH]c1=O | > 100 µM (inactive) | > 100 µM (inactive) | > 100 µM (inactive) | > 100 µM (inactive) | > 100 µM (inactive) | > 100 µM (inactive) | > 100 µM (inactive) | > 100 µM (inactive) | > 100 µM (inactive) | – | > 100 µM (inactive) | > 100 µM (inactive) | > 100 µM (inactive) | > 100 µM (inactive) | > 100 µM (inactive) | > 100 µM (inactive) | > 100 µM (inactive) | > 100 µM (inactive) | > 100 µM (inactive) | > 100 µM (inactive)
CC(=O)O[C@H]1C(=O)[C@@]2(C)[C@H]([C@H](OC(=O)c3ccc(F)cc3)[C@]3(O)C[C@H](OC(=O)[C@H](O)[C@@H](NC(=O)c4ccccc4)c4ccccc4)C(C)=C1C3(C)C)[C@]1(OC(C)=O)CO[C@@H]1C[C@@H]2O | 0.124 µM (active) | 0.00334 µM (active) | 0.0222 µM (active) | – | 0.00931 µM (active) | 0.0199 µM (active) | 0.00608 µM (active) | 0.0559 µM (active) | 0.108 µM (active) | 0.0025 µM (active) | 0.202 µM (active) | 0.0132 µM (active) | 0.0127 µM (active) | 0.0306 µM (active) | 5.92 µM (inactive) | 0.084 µM (active) | 0.0813 µM (active) | 0.0181 µM (active) | 0.00828 µM (active) | 0.0597 µM (active)
CC(C)=CCC(O)[C@](C)(O)[C@H]1[C@H](O)C[C@@]2(C)[C@@H]3CCc4cc(O)c(OC5OC(CO)C(O)C(O)C5O)cc4C3(C)C(=O)C[C@]12C (some centres undefined) | > 100 µM (inactive) | > 100 µM (inactive) | > 100 µM (inactive) | > 100 µM (inactive) | > 100 µM (inactive) | > 100 µM (inactive) | > 100 µM (inactive) | > 100 µM (inactive) | > 100 µM (inactive) | > 100 µM (inactive) | > 100 µM (inactive) | > 100 µM (inactive) | > 100 µM (inactive) | > 100 µM (inactive) | > 100 µM (inactive) | > 100 µM (inactive) | > 100 µM (inactive) | > 100 µM (inactive) | – | > 100 µM (inactive)
COc1cc(N(C)C)c(OC)cc1C=C1C=CC=C1 | > 100 µM (inactive) | > 100 µM (inactive) | > 100 µM (inactive) | 61.8 µM (inactive) | 41.3 µM (inactive) | 82.4 µM (inactive) | 82.4 µM (inactive) | > 100 µM (inactive) | > 100 µM (inactive) | 43.1 µM (inactive) | > 100 µM (inactive) | > 100 µM (inactive) | > 100 µM (inactive) | > 100 µM (inactive) | > 100 µM (inactive) | > 100 µM (inactive) | > 100 µM (inactive) | > 100 µM (inactive) | – | > 100 µM (inactive)
COCc1cc2c(cc1/C(=C/[N+](=O)[O-])CS(=O)(=O)c1ccccc1)OCO2 | > 100 µM (inactive) | > 100 µM (inactive) | > 100 µM (inactive) | > 100 µM (inactive) | > 100 µM (inactive) | > 100 µM (inactive) | > 100 µM (inactive) | > 100 µM (inactive) | > 100 µM (inactive) | > 100 µM (inactive) | > 100 µM (inactive) | > 100 µM (inactive) | – | – | > 100 µM (inactive) | > 100 µM (inactive) | > 100 µM (inactive) | > 100 µM (inactive) | > 100 µM (inactive) | –
CC(=O)Oc1ccc(-c2cc3ccccc3oc2=O)cc1OC(C)=O | 53.2 µM (inactive) | 59.2 µM (inactive) | 15.9 µM (inactive) | – | 36.2 µM (inactive) | – | 34.7 µM (inactive) | 21.6 µM (inactive) | 53.1 µM (inactive) | 27.1 µM (inactive) | 35.6 µM (inactive) | 22.4 µM (inactive) | 51.4 µM (inactive) | 31.6 µM (inactive) | 10.9 µM (inactive) | 21.7 µM (inactive) | – | 24.1 µM (inactive) | 30.5 µM (inactive) | 38.5 µM (inactive)
Cn1c(N/N=C/c2ccccc2)nc(-c2ccc([N+](=O)[O-])cc2)c(C#N)c1=O | 44.3 µM (inactive) | 13.1 µM (inactive) | 38.6 µM (inactive) | 16.5 µM (inactive) | 97.9 µM (inactive) | 27.9 µM (inactive) | 27.6 µM (inactive) | > 100 µM (inactive) | – | > 100 µM (inactive) | 65.8 µM (inactive) | 32.1 µM (inactive) | 33.1 µM (inactive) | > 100 µM (inactive) | 43.6 µM (inactive) | 91.8 µM (inactive) | 53.8 µM (inactive) | 34.3 µM (inactive) | 61.8 µM (inactive) | 34.4 µM (inactive)
O=c1[nH]c2ccc(C(F)(F)F)cc2nc1Cc1ccccc1 | 19.6 µM (inactive) | 28.7 µM (inactive) | – | 18.7 µM (inactive) | 40.5 µM (inactive) | 42.9 µM (inactive) | 37.2 µM (inactive) | 29.9 µM (inactive) | 17.7 µM (inactive) | 28.4 µM (inactive) | 26.6 µM (inactive) | 27.9 µM (inactive) | – | 53 µM (inactive) | 37.3 µM (inactive) | 35.5 µM (inactive) | 27.2 µM (inactive) | 39.5 µM (inactive) | 40 µM (inactive) | 24.7 µM (inactive)
COC(=O)c1ccc(-c2nc(C#N)c(N)o2)cc1 | 35.8 µM (inactive) | > 100 µM (inactive) | > 100 µM (inactive) | – | > 100 µM (inactive) | – | > 100 µM (inactive) | > 100 µM (inactive) | > 100 µM (inactive) | > 100 µM (inactive) | – | > 100 µM (inactive) | > 100 µM (inactive) | 34.7 µM (inactive) | > 100 µM (inactive) | 59.3 µM (inactive) | > 100 µM (inactive) | 57.1 µM (inactive) | > 100 µM (inactive) | > 100 µM (inactive)
CC1(O)CC(C(F)(F)F)(C(F)(F)F)OC1=O (centres undefined) | > 10 µM (inactive) | > 10 µM (inactive) | > 10 µM (inactive) | > 10 µM (inactive) | > 10 µM (inactive) | > 10 µM (inactive) | > 10 µM (inactive) | > 10 µM (inactive) | > 10 µM (inactive) | > 10 µM (inactive) | > 10 µM (inactive) | > 10 µM (inactive) | > 10 µM (inactive) | > 10 µM (inactive) | > 10 µM (inactive) | > 10 µM (inactive) | – | > 10 µM (inactive) | > 10 µM (inactive) | –
COC(=O)Cc1ccc(Oc2nc3ccccc3nc2-c2cccs2)cc1 | > 100 µM (inactive) | > 100 µM (inactive) | > 100 µM (inactive) | 24.2 µM (inactive) | > 100 µM (inactive) | > 100 µM (inactive) | > 100 µM (inactive) | > 100 µM (inactive) | 35.7 µM (inactive) | > 100 µM (inactive) | – | > 100 µM (inactive) | > 100 µM (inactive) | 40.8 µM (inactive) | > 100 µM (inactive) | 40.7 µM (inactive) | 19.1 µM (inactive) | 36.4 µM (inactive) | > 100 µM (inactive) | 53.5 µM (inactive)
